Reference: patent US20240246942A1, “KINASE INHIBITORS FOR THE TREATMENT OF NEURODEGENERATIVE DISEASES” (priority 2020, published 2024)

Experiments:
Assay in all cases: biochemical
[1] = molecular target: T1, panel of 374 wild-type kinases (Homo sapiens, UniProt P49840); conditions: read-out: % Enzyme Activity (relative to DMSO controls), GSK3a
T1 construct: purchased Reaction Biology Corporation

[2] = molecular target: T2, panel of 374 wild-type kinases (Homo sapiens, UniProt P42684); conditions: read-out: % Enzyme Activity (relative to DMSO controls), ABL2/ARG
T2 construct: purchased Reaction Biology Corporation

[3] = molecular target: T3, panel of 374 wild-type kinases (Homo sapiens, UniProt Q8TDC3); conditions: read-out: % Enzyme Activity (relative to DMSO controls), BRSK1
T3 construct: purchased Reaction Biology Corporation
T3 sequence (Q8TDC3 1-778): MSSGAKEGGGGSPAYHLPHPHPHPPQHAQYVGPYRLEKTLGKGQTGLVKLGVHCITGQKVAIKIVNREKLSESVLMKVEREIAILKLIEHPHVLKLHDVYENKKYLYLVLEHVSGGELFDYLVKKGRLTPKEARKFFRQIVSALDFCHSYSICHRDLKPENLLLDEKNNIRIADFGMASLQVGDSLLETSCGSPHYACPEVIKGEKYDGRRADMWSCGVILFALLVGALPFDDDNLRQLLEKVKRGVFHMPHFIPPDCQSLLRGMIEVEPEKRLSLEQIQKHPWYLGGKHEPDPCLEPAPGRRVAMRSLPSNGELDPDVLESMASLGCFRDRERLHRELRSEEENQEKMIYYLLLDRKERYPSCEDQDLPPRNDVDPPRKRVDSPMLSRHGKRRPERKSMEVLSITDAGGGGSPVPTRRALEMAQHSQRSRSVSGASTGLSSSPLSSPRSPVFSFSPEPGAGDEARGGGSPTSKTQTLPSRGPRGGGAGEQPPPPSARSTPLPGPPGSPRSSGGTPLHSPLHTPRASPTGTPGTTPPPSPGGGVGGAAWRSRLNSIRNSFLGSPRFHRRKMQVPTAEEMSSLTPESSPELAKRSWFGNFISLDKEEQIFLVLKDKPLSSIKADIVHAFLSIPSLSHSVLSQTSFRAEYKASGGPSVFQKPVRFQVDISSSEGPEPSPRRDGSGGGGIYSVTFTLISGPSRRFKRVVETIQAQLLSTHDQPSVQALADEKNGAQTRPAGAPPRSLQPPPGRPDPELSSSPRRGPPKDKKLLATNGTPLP

[4] = molecular target: T4, panel of 374 wild-type kinases (Homo sapiens, UniProt Q9UBS0); conditions: read-out: % Enzyme Activity (relative to DMSO controls), kinase p70S6Kb/RPS6KB2
T4 construct: purchased Reaction Biology Corporation

[5] = molecular target: T5, panel of 374 wild-type kinases (Homo sapiens, UniProt P49759); conditions: read-out: % Enzyme Activity (relative to DMSO controls), CLK1
T5 construct: purchased Reaction Biology Corporation

[6] = molecular target: T6, panel of 374 wild-type kinases (Homo sapiens, UniProt Q15208); conditions: read-out: % Enzyme Activity (relative to DMSO controls), kinase STK38/NDR1
T6 construct: purchased Reaction Biology Corporation

[7] = molecular target: T7, panel of 374 wild-type kinases (Homo sapiens, UniProt Q9P1W9); conditions: read-out: % Enzyme Activity (relative to DMSO controls), kinase PIM2
T7 construct: purchased Reaction Biology Corporation

[8] = molecular target: T8, panel of 374 wild-type kinases (Homo sapiens, UniProt P78368); conditions: read-out: % Enzyme Activity (relative to DMSO controls), CK1g2
T8 construct: purchased Reaction Biology Corporation

[9] = molecular target: T9, panel of 374 wild-type kinases (Homo sapiens, UniProt Q6P3R8); conditions: read-out: % Enzyme Activity (relative to DMSO controls), NEK5
T9 construct: purchased Reaction Biology Corporation
T9 sequence (Q6P3R8 1-708): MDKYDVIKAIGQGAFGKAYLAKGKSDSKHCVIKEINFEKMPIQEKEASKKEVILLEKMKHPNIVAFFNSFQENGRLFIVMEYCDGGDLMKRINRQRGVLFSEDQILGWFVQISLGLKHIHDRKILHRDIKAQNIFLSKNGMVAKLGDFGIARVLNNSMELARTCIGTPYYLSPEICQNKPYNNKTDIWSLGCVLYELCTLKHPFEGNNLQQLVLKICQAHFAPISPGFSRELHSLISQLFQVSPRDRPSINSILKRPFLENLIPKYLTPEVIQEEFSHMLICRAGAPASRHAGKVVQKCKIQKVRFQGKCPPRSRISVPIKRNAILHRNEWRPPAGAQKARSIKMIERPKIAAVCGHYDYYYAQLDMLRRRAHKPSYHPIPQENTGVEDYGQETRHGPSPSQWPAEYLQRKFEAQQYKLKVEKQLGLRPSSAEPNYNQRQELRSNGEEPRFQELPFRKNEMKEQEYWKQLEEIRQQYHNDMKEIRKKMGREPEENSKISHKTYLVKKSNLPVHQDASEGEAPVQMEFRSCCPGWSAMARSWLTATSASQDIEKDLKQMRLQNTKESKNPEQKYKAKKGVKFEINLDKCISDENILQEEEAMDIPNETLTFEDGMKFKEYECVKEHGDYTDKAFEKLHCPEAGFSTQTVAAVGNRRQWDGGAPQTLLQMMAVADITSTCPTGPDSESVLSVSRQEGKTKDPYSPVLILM

[10] = molecular target: T10, panel of 374 wild-type kinases (Homo sapiens, UniProt Q8NE63); conditions: read-out: % Enzyme Activity (relative to DMSO controls), HIPK4
T10 construct: purchased Reaction Biology Corporation
T10 sequence (Q8NE63 1-616): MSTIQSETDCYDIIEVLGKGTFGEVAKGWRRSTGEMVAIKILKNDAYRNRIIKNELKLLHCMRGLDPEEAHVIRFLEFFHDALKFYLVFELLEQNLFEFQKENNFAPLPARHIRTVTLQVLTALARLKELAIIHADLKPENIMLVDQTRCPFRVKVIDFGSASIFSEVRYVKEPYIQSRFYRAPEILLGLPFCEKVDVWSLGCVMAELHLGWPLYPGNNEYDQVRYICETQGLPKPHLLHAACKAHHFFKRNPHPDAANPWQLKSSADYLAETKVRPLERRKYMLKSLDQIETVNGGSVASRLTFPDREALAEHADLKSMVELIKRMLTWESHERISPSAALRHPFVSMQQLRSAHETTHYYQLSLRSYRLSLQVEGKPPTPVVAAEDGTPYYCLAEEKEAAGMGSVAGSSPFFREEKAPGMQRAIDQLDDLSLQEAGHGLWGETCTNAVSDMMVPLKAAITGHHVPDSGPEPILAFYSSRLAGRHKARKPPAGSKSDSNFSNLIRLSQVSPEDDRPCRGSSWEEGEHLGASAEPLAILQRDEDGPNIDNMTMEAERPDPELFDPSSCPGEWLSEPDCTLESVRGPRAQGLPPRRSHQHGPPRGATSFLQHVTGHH

T7 sequence (Q9P1W9 whole entry): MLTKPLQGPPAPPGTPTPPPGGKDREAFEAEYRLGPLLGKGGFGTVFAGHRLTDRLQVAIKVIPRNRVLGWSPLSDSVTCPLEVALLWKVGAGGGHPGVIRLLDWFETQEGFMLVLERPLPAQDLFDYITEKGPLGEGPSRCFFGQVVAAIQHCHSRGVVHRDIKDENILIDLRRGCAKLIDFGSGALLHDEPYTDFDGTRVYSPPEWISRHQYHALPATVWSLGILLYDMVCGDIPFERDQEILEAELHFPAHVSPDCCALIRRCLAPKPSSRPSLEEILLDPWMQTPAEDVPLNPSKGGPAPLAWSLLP
T8 sequence (P78368 whole entry): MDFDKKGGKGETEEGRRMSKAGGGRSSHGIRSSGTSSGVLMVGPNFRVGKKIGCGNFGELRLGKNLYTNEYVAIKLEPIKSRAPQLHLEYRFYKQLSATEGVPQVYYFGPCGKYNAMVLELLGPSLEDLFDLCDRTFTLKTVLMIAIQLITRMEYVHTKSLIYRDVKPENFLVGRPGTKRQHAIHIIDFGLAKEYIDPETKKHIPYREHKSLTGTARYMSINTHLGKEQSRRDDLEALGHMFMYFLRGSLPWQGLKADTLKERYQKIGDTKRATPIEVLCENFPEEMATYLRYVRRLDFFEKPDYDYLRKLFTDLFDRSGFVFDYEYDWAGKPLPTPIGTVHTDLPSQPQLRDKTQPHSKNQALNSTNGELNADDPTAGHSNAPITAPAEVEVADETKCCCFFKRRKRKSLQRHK
T4 sequence (Q9UBS0 whole entry): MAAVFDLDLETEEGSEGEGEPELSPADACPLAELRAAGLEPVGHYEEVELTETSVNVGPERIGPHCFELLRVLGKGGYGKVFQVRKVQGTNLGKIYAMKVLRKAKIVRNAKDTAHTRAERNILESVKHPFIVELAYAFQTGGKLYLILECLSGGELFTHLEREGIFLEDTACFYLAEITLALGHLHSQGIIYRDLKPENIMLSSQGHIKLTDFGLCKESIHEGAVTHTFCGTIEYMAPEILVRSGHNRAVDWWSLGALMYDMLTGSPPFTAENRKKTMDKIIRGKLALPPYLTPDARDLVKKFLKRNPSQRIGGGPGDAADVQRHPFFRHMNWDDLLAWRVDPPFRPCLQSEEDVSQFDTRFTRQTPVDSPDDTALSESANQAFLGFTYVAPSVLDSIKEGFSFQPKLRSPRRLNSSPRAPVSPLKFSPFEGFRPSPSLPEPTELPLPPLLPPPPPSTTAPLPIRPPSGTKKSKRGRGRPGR
T2 sequence (P42684 whole entry): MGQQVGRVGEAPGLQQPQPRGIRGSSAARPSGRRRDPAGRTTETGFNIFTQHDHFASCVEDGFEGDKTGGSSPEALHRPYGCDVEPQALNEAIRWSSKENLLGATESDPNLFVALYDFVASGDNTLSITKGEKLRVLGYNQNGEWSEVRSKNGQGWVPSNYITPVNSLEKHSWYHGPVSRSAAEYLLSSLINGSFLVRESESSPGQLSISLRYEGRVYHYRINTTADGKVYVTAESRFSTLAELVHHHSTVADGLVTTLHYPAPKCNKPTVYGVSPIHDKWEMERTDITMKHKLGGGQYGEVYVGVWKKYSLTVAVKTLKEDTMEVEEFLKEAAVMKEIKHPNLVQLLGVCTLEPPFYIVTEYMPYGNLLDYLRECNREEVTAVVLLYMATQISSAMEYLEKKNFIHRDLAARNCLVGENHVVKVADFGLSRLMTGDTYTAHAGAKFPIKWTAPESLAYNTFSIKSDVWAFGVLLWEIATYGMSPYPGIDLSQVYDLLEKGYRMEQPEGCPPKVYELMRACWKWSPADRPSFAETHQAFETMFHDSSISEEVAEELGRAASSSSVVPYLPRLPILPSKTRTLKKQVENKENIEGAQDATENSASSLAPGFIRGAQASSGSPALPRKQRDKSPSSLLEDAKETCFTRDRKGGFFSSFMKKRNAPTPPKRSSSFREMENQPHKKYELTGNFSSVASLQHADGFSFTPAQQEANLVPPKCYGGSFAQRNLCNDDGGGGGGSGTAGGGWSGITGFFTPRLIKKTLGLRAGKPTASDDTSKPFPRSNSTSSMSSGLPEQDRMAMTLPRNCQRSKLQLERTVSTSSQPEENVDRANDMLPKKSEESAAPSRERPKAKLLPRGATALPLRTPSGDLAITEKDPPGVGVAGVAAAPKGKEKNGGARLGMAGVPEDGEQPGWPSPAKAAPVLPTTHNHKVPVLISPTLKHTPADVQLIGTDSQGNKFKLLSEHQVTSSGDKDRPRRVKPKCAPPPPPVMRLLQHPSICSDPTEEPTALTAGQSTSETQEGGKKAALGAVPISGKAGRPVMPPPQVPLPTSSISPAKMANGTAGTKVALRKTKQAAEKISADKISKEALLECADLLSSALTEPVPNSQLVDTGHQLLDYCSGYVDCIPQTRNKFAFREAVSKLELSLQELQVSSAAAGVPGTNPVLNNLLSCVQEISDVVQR
T1 sequence (P49840 whole entry): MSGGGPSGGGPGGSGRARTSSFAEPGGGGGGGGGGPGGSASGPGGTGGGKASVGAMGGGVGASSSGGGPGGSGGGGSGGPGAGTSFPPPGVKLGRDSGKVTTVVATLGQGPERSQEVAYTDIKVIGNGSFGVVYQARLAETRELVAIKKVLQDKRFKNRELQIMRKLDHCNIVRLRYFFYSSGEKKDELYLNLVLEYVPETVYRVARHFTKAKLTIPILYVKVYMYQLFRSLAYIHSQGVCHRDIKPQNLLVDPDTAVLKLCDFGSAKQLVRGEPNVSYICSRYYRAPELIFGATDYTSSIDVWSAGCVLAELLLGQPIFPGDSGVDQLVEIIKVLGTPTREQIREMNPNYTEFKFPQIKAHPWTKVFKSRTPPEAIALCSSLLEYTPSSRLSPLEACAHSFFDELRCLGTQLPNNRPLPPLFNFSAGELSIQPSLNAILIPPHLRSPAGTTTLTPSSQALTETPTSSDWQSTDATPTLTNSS
T6 sequence (Q15208 whole entry): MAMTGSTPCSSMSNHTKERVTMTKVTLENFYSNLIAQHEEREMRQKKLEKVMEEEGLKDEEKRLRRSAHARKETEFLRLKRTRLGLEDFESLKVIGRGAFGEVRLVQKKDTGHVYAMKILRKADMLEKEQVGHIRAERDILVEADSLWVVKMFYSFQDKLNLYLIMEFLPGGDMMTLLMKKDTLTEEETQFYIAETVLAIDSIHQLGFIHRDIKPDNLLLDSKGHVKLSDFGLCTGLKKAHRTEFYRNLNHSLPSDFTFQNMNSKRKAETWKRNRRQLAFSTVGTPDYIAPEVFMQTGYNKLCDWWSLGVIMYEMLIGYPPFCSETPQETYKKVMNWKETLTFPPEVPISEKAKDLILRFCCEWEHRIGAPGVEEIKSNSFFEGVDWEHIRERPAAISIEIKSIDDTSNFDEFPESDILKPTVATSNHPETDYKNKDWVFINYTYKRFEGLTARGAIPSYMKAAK
T5 sequence (P49759 whole entry): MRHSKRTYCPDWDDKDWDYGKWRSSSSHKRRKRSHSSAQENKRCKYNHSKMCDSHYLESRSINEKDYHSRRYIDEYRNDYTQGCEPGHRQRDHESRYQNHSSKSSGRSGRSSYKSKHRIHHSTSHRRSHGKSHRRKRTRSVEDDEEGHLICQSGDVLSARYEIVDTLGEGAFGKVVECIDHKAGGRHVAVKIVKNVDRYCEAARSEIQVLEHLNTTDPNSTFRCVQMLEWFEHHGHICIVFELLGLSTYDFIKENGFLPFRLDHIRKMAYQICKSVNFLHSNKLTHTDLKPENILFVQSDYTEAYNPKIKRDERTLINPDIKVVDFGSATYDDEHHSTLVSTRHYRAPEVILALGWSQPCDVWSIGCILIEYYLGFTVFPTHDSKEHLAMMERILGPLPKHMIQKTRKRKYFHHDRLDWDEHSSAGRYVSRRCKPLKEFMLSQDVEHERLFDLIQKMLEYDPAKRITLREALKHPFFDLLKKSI

Row | SMILES | remaining activity at 5 µM [1] | remaining activity at 5 µM [2] | remaining activity at 5 µM [3] | remaining activity at 5 µM [4] | remaining activity at 5 µM [5] | remaining activity at 5 µM [6] | remaining activity at 5 µM [7] | remaining activity at 5 µM [8] | remaining activity at 5 µM [9] | remaining activity at 5 µM [10] | remaining activity at 10 µM ([1]; 10 uM) | remaining activity at 10 µM ([2]; 10 uM) | remaining activity at 10 µM ([3]; 10 uM) | remaining activity at 10 µM ([4]; 10 uM) | remaining activity at 10 µM ([5]; 10 uM) | remaining activity at 10 µM ([6]; 10 uM) | remaining activity at 10 µM ([7]; 10 uM) | remaining activity at 10 µM ([8]; 10 uM) | remaining activity at 10 µM ([9]; 10 uM) | remaining activity at 10 µM ([10]; 10 uM)
1 | O=C(Nc1cnn(-c2csc(C(=O)NC3COC3)c2)c1)Nc1ccccc1Cl [Compound 17, 4-(4-(3-(2-chlorophenyl)ureido)-1H-pyrazol-1-yl)-N-(oxetan-3-yl)thiophene-2-carboxamide] | 97.4% | 92.7% | 85.5% | 94.2% | 81% | 99.2% | 96.4% | 98.5% | 110% | 100% | – | – | – | – | – | – | – | – | – | –
2 | O=C(Nc1cnn(-c2csc(C(=O)NC3COC3)c2)c1)Nc1c(F)cccc1Cl [Compound 25, 4-(4-(3-(2-chloro-6-fluorophenyl)ureido)-1H-pyrazol-1-yl)-N-(oxetan-3-yl)thiophene-2-carboxamide] | 93.5% | 88.7% | 99.4% | 101% | 74.9% | 95.5% | 129% | 90.2% | 88.1% | 111% | – | – | – | – | – | – | – | – | – | –
3 | Cc1sc(C(=O)NC2COC2)cc1-n1cc(NC(=O)Nc2c(F)cccc2Cl)cn1 [Compound 27, 4-(4-(3-(2-chloro-6-fluorophenyl)ureido)-1H-pyrazol-1-yl)-5-methyl-N-(oxetan-3-yl)thiophene-2-carboxamide] | – | – | – | – | – | – | – | – | – | – | 128% | 123% | 87.8% | 98.9% | 98.4% | 91.5% | 96.5% | 104% | 105% | 98.4%
